According to paper PMC5377415, “Thermo‐kinetic analysis space expansion for cyclophilin‐ligand interactions – identification of a new nonpeptide inhibitor using Biacore™ T200” (FEBS Open Bio, 2017):

Biological target: T1, His-tagged human cyclophilin-A (His-CypA) (Homo sapiens, UniProt P62937)
T1 construct: gene PPIA; full length M1-E165, codon-optimised, E. coli C41
Experiment: SPR (Biacore T200), […] Langmuir fit, captured and stabilised His-CypA
Format: binding

T1 sequence (P62937 whole entry): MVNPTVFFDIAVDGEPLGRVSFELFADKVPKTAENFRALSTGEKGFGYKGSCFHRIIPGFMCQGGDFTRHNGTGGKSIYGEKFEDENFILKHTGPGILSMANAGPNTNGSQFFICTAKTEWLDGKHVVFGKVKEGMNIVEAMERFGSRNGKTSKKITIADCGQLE

Kd: 248 ± 60 µM
Structure (SMILES): Nc1cccnc1N [2,3-diaminopyridine]
